Active and inactive are the calls of the source.
Assays:
[1] = biological target: T1, Endoribonuclease toxin MazF (Escherichia coli K-12, UniProt P0AE70); experiment: substrate-only fluorescence increase artefacts – biochemical, single-stranded RNase substrate, counter-screen for MazEF activator project, dose response (AID 588502); format: functional
T1 sequence (P0AE70 whole entry): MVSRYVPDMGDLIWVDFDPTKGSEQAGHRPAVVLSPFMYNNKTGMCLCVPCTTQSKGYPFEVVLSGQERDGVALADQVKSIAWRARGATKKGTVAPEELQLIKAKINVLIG

[2] = biological target: T1, Endoribonuclease toxin MazF; experiment: activation of MazEF endoribonuclease cleavage – biochemical, fluorescence, single-stranded RNA substrate, uHTS hits, dose response (AID 588481); format: functional
[3] = biological target: T2, Heat shock factor protein 1 (Mus musculus, UniProt P38532); experiment: decrease of HSF1-responsive luciferase luminescence – cell-based, NIH3T3, dose retest, confirmation (AID 2382); format: functional;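 also: NIH3T3 fibroblasts with HSF1-driven luciferase reporter stressed by proteasome inhibitor MG132; luminescence from HSF1-driven luciferase expression after 8 hours of MG132 stress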
T2 sequence (P38532 whole entry): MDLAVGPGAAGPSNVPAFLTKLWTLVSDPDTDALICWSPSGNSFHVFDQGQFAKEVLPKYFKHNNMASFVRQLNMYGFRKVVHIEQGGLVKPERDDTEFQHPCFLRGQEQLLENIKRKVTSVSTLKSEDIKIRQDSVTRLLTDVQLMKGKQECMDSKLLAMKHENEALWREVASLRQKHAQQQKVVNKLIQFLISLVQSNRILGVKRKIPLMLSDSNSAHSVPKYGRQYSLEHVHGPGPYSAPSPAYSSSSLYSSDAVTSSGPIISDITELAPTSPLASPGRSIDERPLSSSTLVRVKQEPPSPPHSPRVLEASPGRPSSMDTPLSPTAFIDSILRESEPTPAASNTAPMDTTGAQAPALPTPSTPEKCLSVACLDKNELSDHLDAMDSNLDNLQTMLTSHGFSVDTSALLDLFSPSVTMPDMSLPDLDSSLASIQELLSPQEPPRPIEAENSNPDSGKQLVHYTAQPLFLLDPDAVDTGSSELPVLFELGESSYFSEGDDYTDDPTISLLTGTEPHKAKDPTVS

[4] = biological target: Induced myeloid leukemia cell differentiation protein Mcl-1 (Homo sapiens, UniProt Q07820); format: functional
Induced myeloid leukemia cell differentiation protein Mcl-1, sequence (Q07820 whole entry): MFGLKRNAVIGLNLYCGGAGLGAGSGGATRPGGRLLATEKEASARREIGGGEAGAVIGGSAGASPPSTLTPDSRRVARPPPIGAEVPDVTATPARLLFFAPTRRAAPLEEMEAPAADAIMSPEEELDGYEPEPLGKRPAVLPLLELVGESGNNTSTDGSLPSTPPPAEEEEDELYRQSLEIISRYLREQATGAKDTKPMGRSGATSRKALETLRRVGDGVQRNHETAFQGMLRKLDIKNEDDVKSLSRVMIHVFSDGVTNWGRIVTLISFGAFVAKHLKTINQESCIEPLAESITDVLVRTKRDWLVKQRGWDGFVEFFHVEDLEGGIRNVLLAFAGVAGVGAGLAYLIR

[5] = biological target: 72 kDa type IV collagenase (Homo sapiens, UniProt P08253); experiment: Dose Response validation of uHTS RPN11 inhibitor hits using a MMP-2 Fluorescence assay.; format: functional
72 kDa type IV collagenase, sequence (P08253 whole entry): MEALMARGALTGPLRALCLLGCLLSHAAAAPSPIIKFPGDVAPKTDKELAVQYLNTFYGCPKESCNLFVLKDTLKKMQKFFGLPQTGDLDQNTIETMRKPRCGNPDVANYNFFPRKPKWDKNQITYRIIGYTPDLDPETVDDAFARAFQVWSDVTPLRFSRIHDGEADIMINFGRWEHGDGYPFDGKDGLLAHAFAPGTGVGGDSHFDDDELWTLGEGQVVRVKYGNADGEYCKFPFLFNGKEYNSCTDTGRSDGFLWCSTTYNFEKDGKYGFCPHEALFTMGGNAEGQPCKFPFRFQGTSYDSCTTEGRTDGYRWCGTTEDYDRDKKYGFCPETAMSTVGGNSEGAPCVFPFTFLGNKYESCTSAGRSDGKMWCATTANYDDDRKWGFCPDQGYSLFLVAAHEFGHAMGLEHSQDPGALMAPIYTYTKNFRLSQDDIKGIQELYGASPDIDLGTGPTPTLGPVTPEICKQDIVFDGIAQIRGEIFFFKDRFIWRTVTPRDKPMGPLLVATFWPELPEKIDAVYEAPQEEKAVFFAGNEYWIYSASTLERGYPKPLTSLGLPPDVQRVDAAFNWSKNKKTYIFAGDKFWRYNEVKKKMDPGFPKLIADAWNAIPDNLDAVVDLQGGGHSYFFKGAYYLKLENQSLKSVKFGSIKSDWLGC

[6] = biological target: Prothrombin (Bos taurus, UniProt P00735); experiment: thrombin protease inhibitors – biochemical, fluorescence polarization, uHTS hits, dose response (AID 602369); format: functional
[7] = biological target: 26S proteasome non-ATPase regulatory subunit 14 (Homo sapiens, UniProt O00487); experiment: inhibition of proteasome subunit RPN11 – biochemical, fluorescence polarization, uHTS hits, confirmation (AID 602368); format: functional
26S proteasome non-ATPase regulatory subunit 14, sequence (O00487 whole entry): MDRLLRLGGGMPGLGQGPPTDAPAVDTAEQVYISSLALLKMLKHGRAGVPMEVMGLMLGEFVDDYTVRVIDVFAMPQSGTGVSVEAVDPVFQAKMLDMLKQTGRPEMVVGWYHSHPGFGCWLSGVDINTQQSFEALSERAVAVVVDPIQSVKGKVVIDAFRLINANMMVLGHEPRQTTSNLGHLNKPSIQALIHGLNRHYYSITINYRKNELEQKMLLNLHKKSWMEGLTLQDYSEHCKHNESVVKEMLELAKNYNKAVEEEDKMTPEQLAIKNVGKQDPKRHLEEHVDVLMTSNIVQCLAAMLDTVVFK

[8] = biological target: Heat shock protein HSP 90-alpha (Homo sapiens, UniProt P07900); format: functional, organism-based
[9] = biological target: SWI/SNF-related matrix-associated actin-dependent regulator of chromatin subfamily A member 2 (Homo sapiens, UniProt P51531); experiment: Luminescence-based cell-based high throughput dose response assay to identify activators of the function of SWI/SNF related, matrix associated, actin dependent regulator of chromatin, subfamily a, member 2 (SMARCA2, BRM).; format: functional
SWI/SNF-related matrix-associated actin-dependent regulator of chromatin subfamily A member 2, sequence (P51531 whole entry): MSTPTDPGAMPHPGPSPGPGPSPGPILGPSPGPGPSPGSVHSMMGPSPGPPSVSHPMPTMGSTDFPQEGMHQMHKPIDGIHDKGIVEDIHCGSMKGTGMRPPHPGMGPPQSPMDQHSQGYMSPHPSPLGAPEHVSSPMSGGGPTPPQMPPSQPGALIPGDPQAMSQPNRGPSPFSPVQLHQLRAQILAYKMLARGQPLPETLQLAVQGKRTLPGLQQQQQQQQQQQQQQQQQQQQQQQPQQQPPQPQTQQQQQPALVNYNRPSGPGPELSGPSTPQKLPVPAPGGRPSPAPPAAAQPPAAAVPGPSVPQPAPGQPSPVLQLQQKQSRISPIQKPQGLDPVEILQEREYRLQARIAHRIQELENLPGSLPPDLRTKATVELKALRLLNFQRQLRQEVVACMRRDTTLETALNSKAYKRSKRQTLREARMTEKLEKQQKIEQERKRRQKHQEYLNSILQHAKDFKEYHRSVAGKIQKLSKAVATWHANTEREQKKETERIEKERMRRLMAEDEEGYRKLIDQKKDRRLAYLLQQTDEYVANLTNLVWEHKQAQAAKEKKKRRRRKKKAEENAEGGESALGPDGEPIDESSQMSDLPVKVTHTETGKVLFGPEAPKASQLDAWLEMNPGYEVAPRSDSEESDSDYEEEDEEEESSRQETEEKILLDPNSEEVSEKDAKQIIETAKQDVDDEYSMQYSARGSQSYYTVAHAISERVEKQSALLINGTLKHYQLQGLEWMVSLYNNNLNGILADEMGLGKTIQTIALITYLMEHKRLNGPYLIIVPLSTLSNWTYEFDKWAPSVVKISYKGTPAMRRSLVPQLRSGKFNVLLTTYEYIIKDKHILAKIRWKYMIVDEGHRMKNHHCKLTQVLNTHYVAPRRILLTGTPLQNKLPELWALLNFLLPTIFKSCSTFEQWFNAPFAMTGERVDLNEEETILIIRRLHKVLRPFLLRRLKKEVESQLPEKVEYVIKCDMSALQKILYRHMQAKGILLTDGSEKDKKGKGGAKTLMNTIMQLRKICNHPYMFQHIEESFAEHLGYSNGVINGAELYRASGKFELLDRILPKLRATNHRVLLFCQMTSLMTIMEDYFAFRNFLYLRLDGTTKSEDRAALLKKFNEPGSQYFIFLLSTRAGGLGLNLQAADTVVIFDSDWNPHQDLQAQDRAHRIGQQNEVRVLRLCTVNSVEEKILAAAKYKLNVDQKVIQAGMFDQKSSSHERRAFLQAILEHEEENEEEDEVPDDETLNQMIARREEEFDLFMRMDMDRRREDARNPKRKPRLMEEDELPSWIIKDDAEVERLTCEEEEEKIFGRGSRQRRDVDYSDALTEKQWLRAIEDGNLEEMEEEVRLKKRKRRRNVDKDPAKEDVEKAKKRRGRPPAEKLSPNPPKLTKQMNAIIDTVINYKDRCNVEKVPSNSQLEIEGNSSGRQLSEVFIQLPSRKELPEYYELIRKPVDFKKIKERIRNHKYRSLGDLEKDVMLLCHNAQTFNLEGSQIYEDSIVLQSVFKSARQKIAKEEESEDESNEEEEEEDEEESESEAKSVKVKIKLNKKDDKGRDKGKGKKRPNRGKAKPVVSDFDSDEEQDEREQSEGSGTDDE

[10] = Counterscreen for activators of the function of SWI/SNF related, matrix associated, actin dependent regulator of chromatin, subfamily a, member 2 (SMARCA2, BRM): Luminescence-based cell-based high throughput dose response assay to identify non-selective compounds using the VP16 reporter assay.; format: functional
[11] = biological target: DNA dC->dU-editing enzyme APOBEC-3G (Homo sapiens, UniProt Q9HC16); format: functional;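 also: Dose-response counterscreen measuring inhibition of APOBEC3G DNA deaminase activity, run while confirming APOBEC3A inhibitors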
DNA dC->dU-editing enzyme APOBEC-3G, sequence (Q9HC16 whole entry): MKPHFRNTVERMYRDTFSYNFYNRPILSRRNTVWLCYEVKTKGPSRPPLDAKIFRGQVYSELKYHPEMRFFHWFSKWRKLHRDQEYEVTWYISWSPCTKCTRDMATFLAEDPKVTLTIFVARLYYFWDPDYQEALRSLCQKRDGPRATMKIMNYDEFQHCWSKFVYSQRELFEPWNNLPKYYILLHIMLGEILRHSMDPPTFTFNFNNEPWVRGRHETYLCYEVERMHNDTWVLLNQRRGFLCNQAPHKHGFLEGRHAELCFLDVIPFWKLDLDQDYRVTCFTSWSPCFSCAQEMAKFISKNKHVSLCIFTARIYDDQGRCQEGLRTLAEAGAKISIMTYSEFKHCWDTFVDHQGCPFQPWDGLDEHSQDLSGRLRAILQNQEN

[12] = biological target: DNA dC->dU-editing enzyme APOBEC-3A (Homo sapiens, UniProt P31941); experiment: Dose Response confirmation of small molecule APOBEC3A DNA Deaminase Inhibitors via a fluorescence-based single-stranded DNA deaminase assay. [Related pubchem assays (depositor defined):AID493011, AID493024]; format: functional
DNA dC->dU-editing enzyme APOBEC-3A, sequence (P31941 whole entry): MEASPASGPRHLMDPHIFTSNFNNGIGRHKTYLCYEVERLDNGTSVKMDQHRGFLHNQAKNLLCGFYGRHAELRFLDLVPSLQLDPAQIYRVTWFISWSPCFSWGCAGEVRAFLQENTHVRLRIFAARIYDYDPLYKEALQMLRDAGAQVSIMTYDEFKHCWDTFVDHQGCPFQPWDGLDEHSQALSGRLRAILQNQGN

[13] = viability of PTEN-deleted HCT116 cells – cell-based, HCT116 PTEN knockout, dose response (AID 1047); format: functional;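 also: HCT116 colon tumor cells with PTEN knocked out; cells exposed to compound for 60 hours before readout; potency for loss of cell viability measured by luminescence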
[14] = viability of HCT116 lacking mutant beta-catenin – cell-based, human colon tumor, dose response (AID 1045); format: functional;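 also: HCT116 colon tumor cells with beta catenin knocked out; cells exposed to compound for 60 hours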
[15] = Counterscreen for inhibitors of Trypanosoma brucei methionyl tRNA synthetase (MetRS): Luminescence-based cell-based high throughput dose response assay to identify compounds that are cytotoxic to Jurkat human T lymphocyte cells.; format: functional
[16] = biological target: T3, DNA repair protein RAD52 homolog (Homo sapiens, UniProt P43351); format: functional, biochemical
T3 sequence (P43351 whole entry): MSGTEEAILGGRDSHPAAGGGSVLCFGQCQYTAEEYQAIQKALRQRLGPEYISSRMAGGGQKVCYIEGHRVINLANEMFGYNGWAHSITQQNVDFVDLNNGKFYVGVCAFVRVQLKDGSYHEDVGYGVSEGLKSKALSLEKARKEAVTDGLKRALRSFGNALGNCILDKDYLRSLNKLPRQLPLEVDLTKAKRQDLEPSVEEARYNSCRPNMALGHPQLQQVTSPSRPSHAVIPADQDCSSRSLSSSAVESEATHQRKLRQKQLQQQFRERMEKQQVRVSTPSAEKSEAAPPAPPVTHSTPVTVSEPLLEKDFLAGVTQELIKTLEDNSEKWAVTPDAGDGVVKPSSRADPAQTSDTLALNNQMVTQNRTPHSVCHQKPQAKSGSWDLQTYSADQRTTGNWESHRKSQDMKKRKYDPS

[17] = HIV-1 AD8 envelope cell-cell fusion blockers – cherry-pick, dose response (AID 652062); format: functional, cell-based;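 also: luciferase signal from cell-cell fusion driven by HIV-1 clade B AD8 Env; potency is for inhibitors of fusion seen as a drop in luminescence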
[18] = viability loss in CEM21 cells – cell-based, CellTiter-Glo luminescence, cherry-picked, cytotoxicity control for viral fusion inhibitor project, dose response (AID 652042); format: functional;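 also: potency for signal decrease meaning cytotoxicity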
[19] = off-target signal loss in HeLa-CEM21 co-culture – HeLa F-luc CTL cells, cherry-picked, counter-screen for HIV-1 Env fusion inhibitor project, dose response (AID 652040); format: functional, cell-based;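 also: potency for signal decrease marking cytotoxic or nonspecific inhibition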
[20] = blockers of HIV-1 envelope-mediated cell-cell fusion – cherry-pick, dose response (AID 652057); format: functional, cell-based
[21] = intracellular Trypanosoma cruzi inhibitors in host cells – cell-based, plate reader, cherry-pick samples, set 3, dose response (AID 651818); format: functional;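 also: compounds incubated with infected cells for about four days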
[22] = biological target: T4, Trace amine-associated receptor 1 (Homo sapiens, UniProt Q96RJ0); experiment: Fluorescence-based cell-based high throughput dose response assay to identify agonists of the human trace amine associated receptor 1 (TAAR1).; format: functional
T4 sequence (Q96RJ0 whole entry): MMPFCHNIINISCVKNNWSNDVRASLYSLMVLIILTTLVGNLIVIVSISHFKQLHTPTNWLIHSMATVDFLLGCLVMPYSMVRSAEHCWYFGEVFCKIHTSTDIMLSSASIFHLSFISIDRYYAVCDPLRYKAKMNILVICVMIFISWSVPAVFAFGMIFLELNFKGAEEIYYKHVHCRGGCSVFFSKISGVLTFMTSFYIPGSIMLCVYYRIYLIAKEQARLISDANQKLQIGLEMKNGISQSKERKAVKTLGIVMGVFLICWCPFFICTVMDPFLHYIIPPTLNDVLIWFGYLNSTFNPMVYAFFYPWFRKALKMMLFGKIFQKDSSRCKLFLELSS

[23] = cells; format: functional, cell-based
[24] = cells; format: functional, cell-based; remark: listed apart in the source
[25] = biological target: T4, Trace amine-associated receptor 1; experiment: Counterscreen for agonists of the human trace amine associated receptor 1 (hTAAR1): Fluorescence-based cell-based high throughput dose response assay to identify hTAAR1 agonist that also desensitize TAAR1 receptor response.; format: functional
[26] = P. falciparum Dd2 growth inhibitors, dose response, SYBR Green, cherry-picked samples (AID 1159567); format: functional, cell-based
[27] = toxicity to human hepatoma HepG2 cells – cell-based, cherry-picked samples, cytotoxicity control, dose response (AID 1159577); format: functional
[28] = growth inhibition of PfATP4-mutant resistant parasites – NITD609-resistant line, SYBR Green, dry powder, dose response (AID 1159571); format: functional, cell-based;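 also: parasites synchronized at ring stage by sorbitol before testing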
[29] = growth inhibition of yeast DHODH-expressing 3D7 parasites – SYBR Green, dry powder samples, dose response (AID 1159570); format: functional, cell-based;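 also: parasite growth measured after 72 hours of compound exposure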
[30] = Dd2 malaria parasite growth inhibition potency – SYBR Green, dry powder samples, dose response (AID 1159566); format: functional, cell-based;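 also: potency for growth inhibition with lower SYBR green DNA signal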
[31] = toxicity to human HepG2 hepatoma cells – cell-based, plate reader, dry powder samples, cytotoxicity control, dose response (AID 1159569); format: functional;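 also: inhibitor potency with signal falling toward the positive control level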

NC(=O)c1c(NC(=O)C2COc3ccccc3O2)sc2c1CCN(Cc1ccccc1)C2 (stereo not drawn)
EC50 [1]: 85.1 µM (inactive)
EC50 [2]: 12.1 µM (active)
EC50 [3]: > 195 µM (not active)

O=C1SC(SCc2ccccc2Cl)=N/C1=C\c1ccc(C(=O)O)cc1
IC50 [4]: 5.02 µM (active)

N#Cc1c(-c2ccco2)cc(-c2ccc(F)cc2)nc1N
IC50 [5]: > 100 µM (inactive)
IC50 [6]: 20.9 µM (active)
IC50 [7]: 15.8 µM (active)

O=C(C1CCN(C2CC(=O)N(c3cccc(Cl)c3)C2=O)CC1)N1CCCC1 (stereo not drawn)
AC50 [8]: 4.21 µM (active)

O=C1CNC(=S)N1c1nc2ccccc2s1
EC50 [9]: > 91.2 µM (inactive)
EC50 [10]: > 91.2 µM (inactive)

C=CCn1c(NC(=O)c2ccc(C)cc2)c(C#N)sc1=N
IC50 [11]: 4.44 µM (active)
IC50 [12]: 3.47 µM (active)

COc1cccc(-n2c(SCC(N)=O)nc3ccccc3c2=O)c1
IC50 [5]: > 100 µM (inactive)
IC50 [6]: 58.2 µM (active)
IC50 [7]: 55.9 µM (active)

CCC1C/C(=C\c2cccnc2)C(=O)/C(=C/c2cccnc2)C1 (stereo not drawn)
AC50 [8]: 12.7 µM (active)
EC50 [13]: 1.01 µM (active)
EC50 [14]: 0.836 µM (active)

Cc1ccc(C(=O)NN2C(=O)/C(=C/c3nc4ccccc4[nH]3)SC2=S)cc1
IC50 [15]: 36.7 µM (inactive)

O=C(c1ccc(Cn2c(=S)[nH]c3ccc(N4CCOCC4)cc3c2=O)cc1)N1CCC(N2CCCCC2)CC1
AC50 [16]: 13.9 µM (active)

CCn1c(SCC(=O)N2CCN(c3ccc(Cl)cc3)CC2)nc2ccccc2c1=O
IC50 [11]: 2.57 µM (active)
IC50 [12]: 2.83 µM (active)

Cc1ccc(C)c(CNc2ccc(S(=O)(=O)N3CCCCC3)cc2)c1
AC50 [17]: 2.31 µM (active)
AC50 [18]: 63.8 µM (active)
AC50 [19]: < 0.26 µM (active)
AC50 [20]: 50.5 µM (active)

C[C@H]1CN([C@@H](C)CO)C(=O)c2cccc(NC(=O)Nc3ccc(C(F)(F)F)cc3)c2O[C@H]1CN(C)Cc1ccc2c(c1)OCO2
AC50 [21]: 1.77 µM (active)

CCOC(=O)[C@]12CCCC=C1N(Cc1ccc3c(c1)OCO3)C(=O)[C@H](CC(=O)NCCc1ccccc1OC)C2
EC50 [22]: 4.06 µM (active)
EC50 [23]: > 29.9 µM (inactive)
IC50 [24]: > 29.9 µM (inactive)
IC50 [25]: 5.85 µM (active)

C[C@H]1CN([C@@H](C)CO)C(=O)c2cccc(NC(=O)CCCCCC(=O)Nc3ccccc3N)c2O[C@H]1CN(C)Cc1ccc(C(F)(F)F)cc1
AC50 [21]: 3.96 µM (active)

C[C@@H]1CN([C@@H](C)CO)C(=O)c2cccc(NC(=O)Nc3ccc(F)cc3)c2O[C@@H]1CN(C)Cc1ccc(-c2ccccc2)cc1
AC50 [21]: 3.67 µM (active)

C[C@H]1CN([C@@H](C)CO)C(=O)c2cc(NC(=O)Nc3ccc(C(F)(F)F)cc3)ccc2O[C@@H]1CN(C)Cc1ccc(C(F)(F)F)cc1
AC50 [21]: 3.35 µM (active)

C/C(=N\NS(=O)(=O)c1ccc([N+](=O)[O-])cc1)c1c[nH]c2ccccc12
EC50 [1]: > 99 µM (inactive)
EC50 [2]: 14.9 µM (active)

Cc1ccccc1S(=O)(=O)N1[C@H](C#N)[C@@H](c2ccc(C#CC3CCCCC3)cc2)[C@@H]1CO
AC50 [26]: 6.83 µM (active)
AC50 [27]: > 39 µM (inactive)

Cc1ccc(-c2ccc([C@H]3[C@@H](CO)N4CCCCN(S(=O)(=O)c5cccc(C)c5)C[C@H]34)cc2)cc1
AC50 [26]: 1.31 µM (active)
AC50 [27]: 9.89 µM (active)

COc1ccc2c3c([nH]c2c1)[C@@H](CO)N(Cc1ccncc1)CC31CCN(Cc2ccc(-c3ccccn3)cc2)CC1
AC50 [28]: 0.623 µM (active)
AC50 [29]: 0.649 µM (active)
AC50 [30]: 0.613 µM (active)
AC50 [26]: 0.546 µM (active)
AC50 [27]: > 39 µM (inactive)
AC50 [31]: 21.2 µM (active)

CCC(=O)N1[C@H](CO)[C@H](c2ccc(C3=CCCCC3)cc2)[C@H]1CNC1CCCC1
AC50 [26]: 4.7 µM (active)
AC50 [27]: > 42 µM (inactive)

OCCNc1nc(Nc2cccc(O)c2)nc2ccccc12
EC50 [22]: 0.0786 µM (active)
EC50 [23]: > 29.9 µM (inactive)
IC50 [24]: > 29.9 µM (inactive)
IC50 [25]: 0.261 µM (active)

C[N+]1(C)[C@@H]2CC[C@H]1C[C@@H](OC(=O)C(CO)c1ccccc1)C2 (stereo partly drawn)
IC50 [11]: 3.18 µM (active)
IC50 [12]: 2.23 µM (active)

N=C(N)N/N=C/c1c(Cl)cccc1Cl [GUANABENZ]
EC50 [22]: > 3.33 µM (active)
EC50 [23]: > 29.9 µM (inactive)
IC50 [24]: > 29.9 µM (inactive)
IC50 [25]: 1.17 µM (active)
